Measured values from PubChem BioAssay AID1996.
≈ marks a conversion by molar mass, not a printed value.

details: buffer; pH 7.4; 200.0 µM

Structure (SMILES) | solubility kinetic [mg/mL]
CC1(c2ccccc2)CC(C)(C)N2C(=O)Cc3cccc1c32 (stereo not drawn) | 0.006 (≈ 20.6 µM)
CC(C)NC(=O)C(=O)Nc1cc2c3c(c1)CCC(=O)N3CCC2 | > 0.0473
N#Cc1ccc(S(=O)(=O)NC2CCCCNC2=O)cc1 (stereo not drawn) | > 0.044
CCN1CCN(c2cc(=O)n3ccccc3n2)CC1 | 0.032 (≈ 124 µM)
Cc1ccc(N2C(=O)CN=C2Nc2nc(C)cc(C)n2)cc1 | > 0.0443
Cc1cccc(OCCCC(=O)Nc2nccs2)c1C | 0.0015 (≈ 5.17 µM)
CC(=O)Nc1ccc(-c2csc(Nc3ccccn3)n2)cc1 | 0.0005 (≈ 1.61 µM)
CCCOC(=O)Nc1ccc(S(=O)(=O)Nc2ncccn2)cc1 | > 0.0505
COc1ccccc1CNc1nc(C)c(C(C)=O)s1 | 0.0121 (≈ 43.8 µM)
N#C/C(=C\c1ccc(-c2ccccc2[N+](=O)[O-])o1)C(N)=O | 0.0022 (≈ 7.77 µM)
CNC(=O)/C(C#N)=C/c1cc(C)n(-c2ccc(N3CCOCC3)cc2)c1C | 0.0015 (≈ 4.12 µM)
COc1ccc(C(=O)NCc2ccc3c(c2)CCO3)cc1 | 0.0325 (≈ 115 µM)
Cc1ccc(-n2c(=O)[nH]c3ncccc3c2=O)cc1 | 0.0069 (≈ 27.2 µM)
Cc1ccc2[nH]c3c(c2c1)SC(C)(C)CC3=O | 0.0008 (≈ 3.26 µM)
CCOc1ccccc1NC(=O)c1oc2ccccc2c1NC(=O)C1CCCO1 (stereo not drawn) | < 0.0004
COc1cc(CNC2CCCCCCC2)ccc1OCC(N)=O | > 0.0481
Cc1ccc(C(O)c2nc3ccccc3n2C)cc1 (stereo not drawn) | > 0.0378
Cc1nc(NC(=O)c2cncc(Br)c2)ccc1Br | 0.0021 (≈ 5.66 µM)
Cc1cccc(C(=O)Nc2cccc(C(=O)Nc3cc(C)ccn3)c2)c1 | 0.0009 (≈ 2.61 µM)
O=C(/C=C/c1ccc(Cl)cc1)NC1CCS(=O)(=O)C1 (stereo not drawn) | > 0.045
Cc1ccc(SCCC(=O)OC(C(=O)NC(N)=O)C(C)C)cc1 (stereo not drawn) | 0.007 (≈ 20.7 µM)
Cc1sc(N)nc1-c1c(C)n(C)c2ccccc12 | 0.0376 (≈ 146 µM)
N/C(=N\OC(=O)c1ccc(Cl)cc1[N+](=O)[O-])c1cccnc1 | 0.0125 (≈ 39 µM)
CC(=O)Nc1ccc(NC(=O)COc2ccc(-c3ccccc3)cc2)cc1 | < 0.0004

Structure (SMILES) | solubility kinetic [mg/mL]
Cc1ncoc1C(=O)N1CCCC(C(=O)c2cccc3ccccc23)C1 (stereo not drawn) | 0.0503 (≈ 144 µM)
CCOc1ccc(-c2cn3ccccc3n2)cc1 | 0.0181 (≈ 76 µM)
CC(=O)c1ccccc1NS(=O)(=O)c1cccc2nonc12 | 0.0009 (≈ 2.84 µM)
CCCOc1ccc(C2=CSC3=NCCN23)cc1[N+](=O)[O-] | > 0.0458
CCC(=O)N/C(=N/c1nc(C)cc(C)n1)Nc1ccc(C)cc1 | 0.0017 (≈ 5.46 µM)
COc1ccc(S(=O)(=O)N2CCCCC2C)cc1 (stereo not drawn) | > 0.0404
N/C(=N\OC(=O)COc1ccccc1)c1ccncc1 | > 0.0407
CC(C)=C(NC(=O)c1ccccc1)C(N)=O | > 0.0327
Cc1cc(C(=O)NC(C)CCc2ccccc2)ccc1[N+](=O)[O-] (stereo not drawn) | 0.004 (≈ 12.8 µM)
CCN(CC)S(=O)(=O)c1ccc(OC)c(NC(=O)CSCc2c(C)noc2C)c1 | > 0.0662
Cc1ccc(OCC(=O)NCCCNC(=O)c2cccnc2)cc1 | > 0.0491
Cc1ccc(OCC(=O)Nc2ccc(CN3CCOCC3)cc2)cc1 | 0.0278 (≈ 81.7 µM)
CN(C(=O)c1ccc(Br)o1)C1(C)CCS(=O)(=O)C1 (stereo not drawn) | > 0.0504
C/C(=C\c1ccc(F)cc1)C(=O)c1c(C)cc(C)[nH]c1=O | 0.0356 (≈ 125 µM)
O=C(NCc1ccc(Cl)cc1)C1CCN(C(=O)c2ccco2)CC1 | > 0.052
COc1ccc(/C=C/C(=O)N(C)C2CCCCC2)cc1Br | 0.018 (≈ 51.1 µM)
COc1ccccc1N1CCN(C(=O)c2cc(C)on2)CC1 | > 0.0452
C[N+](C)(C)CC#CCN1CCCC1=O.[I-] | > 0.0483
COc1ccccc1N1CN(S(=O)(=O)c2ccc(C)cc2)c2nc3ccccc3nc21 | 0.001 (≈ 2.31 µM)
O=C(Nc1ccc(S(=O)(=O)NC2=NCCCCC2)cc1)c1cccc(S(=O)(=O)N2CCOCC2)c1 | 0.0515 (≈ 98.9 µM)
CC(C)CCn1c(N2CCCC2)nc2c1c(=O)[nH]c(=O)n2C | > 0.0458
Cc1csc(NC(=S)NC(=O)c2ccccc2)n1 | 0.001 (≈ 3.61 µM)
O=C(O)[C@@H]1CCCN1C(=O)COc1ccc2c3c(c(=O)oc2c1)CCC3 | > 0.0536
Clc1ccc(CN2CCCCCC2)cc1.O=C(O)C(=O)O | 0.0249

Structure (SMILES) | solubility kinetic [mg/mL]
COc1ccc(Cl)cc1C(=O)NCCCn1ccnc1 | > 0.0441
CC(C)(C)C(=O)N1CCN(c2ccnc3cc(Cl)ccc23)CC1 | 0.045 (≈ 136 µM)
COC(=O)CSc1ncnc2c(C)csc12 | 0.0299 (≈ 118 µM)
CC1C2NC(=O)N(Cc3ccccc3)C1(C)Oc1ccccc12 (stereo not drawn) | 0.0209 (≈ 67.8 µM)
Nc1cc(C(=O)OCC(=O)NCCC2=CCCCC2)ccc1Cl | 0.0094 (≈ 27.9 µM)
O=C(O)C1C2CCC(O2)C1C(=O)Nc1ccc(Cl)cc1F (stereo not drawn) | > 0.0471
Cn1c(=O)c2c(O)c(C=NCc3ccccc3)c(=O)n(C)c2n(C)c1=O | 0.0513 (≈ 145 µM)
Cc1c(C(=O)OCC(=O)NC(=O)NC2CCCCC2)cccc1[N+](=O)[O-] | 0.0023 (≈ 6.33 µM)
COc1cccc(NC(=O)CNC(=O)c2ccc([N+](=O)[O-])cc2)c1 | 0.0029 (≈ 8.81 µM)
CCc1ccccc1NC(=O)c1cc(C)no1 | > 0.0345
Cc1cc(=O)[nH]c(SCC(=O)c2ccc(O)c(O)c2)n1 | > 0.0438
O=C(OCC(=O)N1CCCC1)c1c(Cl)ccc(Cl)c1Cl | 0.039 (≈ 116 µM)
COc1cc(C(=O)NC(c2ccccc2)c2ccccc2)cc(OC)c1C | < 0.0008
C=CCC1Cc2c(cccc2[N+](=O)[O-])C(CC=C)N1 (stereo not drawn) | 0.0305 (≈ 118 µM)
CC1CCC(C(C)C)C(OCC(O)CNC(C)(C)C)C1.Cl (stereo not drawn) | > 0.0483
CC1(C)CC(=O)c2sc(NS(=O)(=O)c3ccc(Cl)cc3)nc2C1 | > 0.0556
CS(=O)(=O)N(CC(=O)Nc1ccccc1F)C1CCCCC1 | 0.0473 (≈ 144 µM)
C=CCOc1nc2c(c(=O)n(C)c(=O)n2C)n1Cc1ccccc1 | 0.0082 (≈ 25.1 µM)
COc1ccc(S(=O)(=O)N(C)CC(=O)NCCN2CCOCC2)cc1 | 0.0515 (≈ 139 µM)
OCC(O)C1OC(Nc2ccc(Cl)cc2)C(O)C1O (stereo not drawn) | > 0.0435
COc1ccccc1NC(=O)CCN1C(=O)C2CC=CCC2C1=O (stereo not drawn) | > 0.0493
CCOc1cc(N2CCOCC2)c(OCC)cc1NC(=O)COC(=O)C1CCCN1S(=O)(=O)c1ccccc1F (stereo not drawn) | 0.0847 (≈ 146 µM)
C=CCSC1=NN2CCS(=O)(=O)N=C2S1 | > 0.0395
O=C(NC1CCCC1)c1cc2cc(Br)ccc2o1 | 0.0061 (≈ 19.8 µM)

Structure (SMILES) | solubility kinetic [mg/mL]
O=C(Cc1ccccc1)Nc1ccc(NC(=O)c2ccco2)cc1 | 0.004 (≈ 12.5 µM)
CC(OC(=O)C1CCCC1)C(=O)Nc1ncc(Cl)cc1Cl (stereo not drawn) | 0.0491 (≈ 148 µM)
COc1ccc(CC(=O)OCC(=O)NC2CCCC(C)C2C)cc1OC (stereo not drawn) | > 0.0545
CC(=O)C1=C(O)C(=O)N(Cc2ccccc2)C1c1cccc([N+](=O)[O-])c1 (stereo not drawn) | > 0.0529
CCOC(=O)[C@H](CCc1ccccc1)N[C@H]1CCc2ccccc2N(CC(=O)O)C1=O.Cl | > 0.0691
Cc1cccc(NC(=O)c2ccc3c(c2)CCN3S(C)(=O)=O)c1C | 0.0016 (≈ 4.65 µM)
CCOC(=O)c1sc(S(C)(=O)=O)c2c1CC(C)(C)C/C2=N/O | > 0.0518
Cc1nc(N)c(Cc2ccccc2F)c(N)n1 | > 0.0348
c1ccc(-c2csc3ncnc(NCc4ccccn4)c23)cc1 | 0.0401 (≈ 126 µM)
O=C(Cc1ccccc1Cl)N1CCOCC1 | > 0.036
O=C(Nc1cccc(S(=O)(=O)N2CCCCC2)c1)c1cncc(Br)c1 | 0.0316 (≈ 74.5 µM)
O=C(CN1C(=O)NC2(CCCCCC2)C1=O)Nc1ccc([N+](=O)[O-])cc1 | 0.0133 (≈ 36.9 µM)
COc1cccc(OCc2ccc(Cl)cc2)c1C#N | < 0.0006
CCOC(=O)C1=C(O)/C(=C\c2cc(C)n(-c3ccccc3F)c2C)N=C1C | 0.0326 (≈ 88.5 µM)
Cc1ccc(N2C(=O)C(F)(F)C2c2ccccc2)cc1 (stereo not drawn) | 0.001 (≈ 3.66 µM)
O=C(NCc1csc(-c2cccs2)n1)c1cccc(Cl)c1 | 0.0079 (≈ 23.6 µM)
CCNC(=S)Nc1ccc(N2CCCCC2)cc1 | > 0.0395
C=CCOn1c(=O)c(-c2ccc(Br)cc2)[n+]([O-])c2ccccc21 | 0.0004 (≈ 1.07 µM)
Cc1cnc(NC(=O)CN2CCCCC2)s1.[O-][Cl+3]([O-])([O-])O | 0.0247
COc1cc2ncnc(NCc3cccc(F)c3F)c2cc1OC | 0.0107 (≈ 32.3 µM)
CC(=O)Nc1ccc(Nc2ncnc3ccccc23)cc1 | 0.0065 (≈ 23.4 µM)
Cc1ccccc1OCCC(=O)OCC(=O)NC1CC1 | > 0.0416
O=C1CCCCC1Sc1ccc(Cl)cc1[N+](=O)[O-] (stereo not drawn) | 0.0406 (≈ 142 µM)
COc1cccc(-c2cc(-c3cccnc3)nc(N)c2C#N)c1 | 0.0023 (≈ 7.61 µM)

Structure (SMILES) | solubility kinetic [mg/mL]
Cc1ccc(-c2noc(COC(=O)c3ccco3)n2)cc1 | 0.0088 (≈ 31 µM)
CCOC(=O)CN=C/C(C(C)=O)=C(/C)O | > 0.032
c1ccc(-c2nccnc2-c2ccccc2)cc1 | 0.0215 (≈ 92.6 µM)
COc1ccc(N(CC(=O)N2CCOCC2)S(C)(=O)=O)cc1Cl | > 0.0544
N#Cc1c(-c2ccccc2)oc(=O)c2ccccc12 | 0.0012 (≈ 4.85 µM)
NC(=O)COC(=O)Cc1coc2cc3c(cc12)CCC3 | 0.0356 (≈ 130 µM)
OC1(C#CCN2CCCC2)c2ccccc2-c2ccccc21 | 0.0114 (≈ 39.4 µM)
CCOC(=O)c1nccnc1C(=O)Nc1cccc(C(F)(F)F)c1 | 0.0475 (≈ 140 µM)
O=c1[nH]cc(S(=O)(=O)N2CCOCC2)c(=O)[nH]1 | > 0.0392
COc1ccc(C/C(N)=N/OC(=O)c2ccco2)cc1OC | > 0.0456
Nc1cc(S(=O)(=O)N2CCOCC2)ccc1N1CCOCC1 | > 0.0491
NS(=O)(=O)c1ccc(CCNC(=O)CCc2ccccc2)cc1 | 0.0464 (≈ 140 µM)
Cc1ccc(S(=O)(=O)N(C)C)cc1NC(=O)Nc1ccccc1F | 0.0017 (≈ 4.84 µM)
CCCOc1nc2ccccc2cc1/C=C/C(=O)O | 0.0083 (≈ 32.3 µM)
O=C(COC(=O)c1ccccc1)NC12CC3CC(CC(C3)C1)C2 | 0.0092 (≈ 29.4 µM)
COCCOc1ccc(C(F)(F)F)cc1N | 0.0319 (≈ 136 µM)
Cc1ccccc1C(=O)NC(=S)NCc1ccccc1 | < 0.0003
c1ccc(N2CCOCCOCCOCCOCCOCC2)cc1 | > 0.0509
CC(=O)c1ccc2noc(-c3ccc(C)cc3)c2c1 | 0.0262 (≈ 104 µM)
CC(=O)N1CCN(S(=O)(=O)c2ccc(F)c(Cl)c2)CC1 | > 0.0481
CN(C(=O)COC(=O)c1ccc(Br)c(S(=O)(=O)N2CCOCC2)c1)C1CCCCC1 | > 0.0755
Br.CCSC(=Nc1ccccc1)N1CCOCC1 | 0.0439
